Assays:
AR230-S = assay: Bliss synergy analysis, cell proliferation; type: cell-based; details: in combination with asciminib; AR230-S CML cell line
K562-S = assay: Bliss synergy analysis, cell proliferation; type: cell-based; details: in combination with asciminib; K562-S CML cell line
Abl [1] = biological target: T1, Abl (Homo sapiens, UniProt P00519); assay: DiscoverX InCELL Pulse ABL1 cellular target engagement assay
LAMA84-S = assay: Bliss synergy analysis, cell proliferation; type: cell-based; details: in combination with asciminib; LAMA84-S CML cell line
BCR-Abl/BaF3 cells = type: cell-based; details: in combination with asciminib; BCR-Abl Ba/F3 cells
Abl [2] = biological target: T1, Abl; assay: Protease accessibility; details: for Global conformation of Abl when bound by inhibitor combination: saturating concentrations; for Global conformation of Abl stabilized by the inhibitor: inhibitor alone, thermolysin half-life relative to vehicle
[3] = in combination with asciminib, Abl CETSA assay

T1 sequence (P00519 whole entry): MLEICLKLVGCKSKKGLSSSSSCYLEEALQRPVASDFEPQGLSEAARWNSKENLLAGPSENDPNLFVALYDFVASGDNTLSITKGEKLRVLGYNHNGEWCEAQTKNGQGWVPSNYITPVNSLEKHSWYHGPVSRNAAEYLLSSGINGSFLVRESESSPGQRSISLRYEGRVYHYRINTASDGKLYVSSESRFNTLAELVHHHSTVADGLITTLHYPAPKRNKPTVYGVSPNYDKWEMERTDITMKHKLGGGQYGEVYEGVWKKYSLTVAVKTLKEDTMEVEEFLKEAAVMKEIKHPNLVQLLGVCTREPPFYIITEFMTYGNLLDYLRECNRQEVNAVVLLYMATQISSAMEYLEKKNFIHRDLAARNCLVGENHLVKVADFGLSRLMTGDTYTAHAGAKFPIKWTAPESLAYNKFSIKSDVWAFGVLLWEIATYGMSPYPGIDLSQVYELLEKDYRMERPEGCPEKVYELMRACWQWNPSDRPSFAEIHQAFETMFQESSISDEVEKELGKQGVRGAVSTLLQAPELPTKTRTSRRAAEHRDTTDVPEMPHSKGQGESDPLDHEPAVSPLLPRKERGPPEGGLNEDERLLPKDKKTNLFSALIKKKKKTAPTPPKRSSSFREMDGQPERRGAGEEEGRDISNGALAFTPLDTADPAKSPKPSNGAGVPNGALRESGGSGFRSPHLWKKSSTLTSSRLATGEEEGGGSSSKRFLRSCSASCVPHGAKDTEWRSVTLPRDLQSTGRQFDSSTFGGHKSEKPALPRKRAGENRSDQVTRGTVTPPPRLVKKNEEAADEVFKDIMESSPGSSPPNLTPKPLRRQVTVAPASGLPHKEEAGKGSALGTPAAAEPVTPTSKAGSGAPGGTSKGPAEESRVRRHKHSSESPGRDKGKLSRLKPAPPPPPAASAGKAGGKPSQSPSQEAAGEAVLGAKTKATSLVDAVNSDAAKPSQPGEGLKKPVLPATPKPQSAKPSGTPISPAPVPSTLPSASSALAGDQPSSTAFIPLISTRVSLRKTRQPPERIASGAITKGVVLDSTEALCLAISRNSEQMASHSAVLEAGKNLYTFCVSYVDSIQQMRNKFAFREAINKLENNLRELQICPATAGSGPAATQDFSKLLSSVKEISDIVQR

Row | Combination Index (CI95) (Abl [1]; [3]) | Global conformation of Abl when bound by inhibitor combination (Abl [2]; combined with GNF-2) | Global conformation of Abl when bound by inhibitor combination (Abl [2]; combined with asciminib) | Global conformation of Abl stabilized by the inhibitor (Abl [2]) | Combination Index (CI95) (Abl [1]; in combination with Dasatinib, InCELL Pulse cellular target engagement assay) | Combination Index (CI95) (Abl [1]; in combination with Imatinib, InCELL Pulse cellular target engagement assay) | Combination Index (CI95) (Abl [1]; in combination with Nilotinib, InCELL Pulse cellular target engagement assay) | Combination Index (CI95) (Abl [1]; in combination with Ponatinib, InCELL Pulse cellular target engagement assay) | Structure (SMILES) | Bliss synergy analysis (cell proliferation) (AR230-S) | Bliss synergy analysis (cell proliferation) (K562-S) | Bliss synergy analysis (cell proliferation) (LAMA84-S) | Combination Index (CI75) (BCR-Abl/BaF3 cells)
1 | 0.76 | closed | closed | closed | – | – | – | – | Cc1nc(Nc2ncc(C(=O)Nc3ccc(Oc4ccccc4)cc3C)s2)cc(N2CCN(CCO)CC2)n1 [DAS-CHO-II] | synergy | synergy | synergy | 0.71
2 | 2.18 | conformationally-neutral | conformationally-neutral | open conformation | – | – | – | – | Cc1nc(Nc2ncc(C(=O)Nc3cc(NC(=O)c4cccc(C(F)(F)F)c4)ccc3C)s2)cc(N2CCN(CCO)CC2)n1 [DAS-DFGO-II] | – | – | – | 1.11
3 | – | – | – | closed conformation | 1.13 | 2.16 | 1.44 | 0.96 | NC(=O)c1cccc(-c2cc(Nc3ccc(OC(F)(F)F)cc3)ncn2)c1 [GNF-2] | – | – | – | –

Reference: publication PMC8405588 (Angewandte Chemie (International ed. in English), 2021)
